# According to the supplement of paper PMC10307832:
# Assays:
# XMD14-99 + Foretinib = compound: CN1CCN(CC1)C2=CC(=C(C=C2)NC3=NC(=C(S3)C(=O)C4=C(C=CC=C4Cl)Cl)N)OC [XMD14-99] + COc1cc2c(Oc3ccc(NC(=O)C4(C(=O)Nc5ccc(F)cc5)CC4)cc3F)ccnc2cc1OCCCN1CCOCC1 [Foretinib] (partner 0.25 µM); test: relative viability (nuclei count vs DMSO), 5 days (fraction); higher = more cells survive
# In short: (§1)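 A single step with final 0.05% Triton X-100, 1% formaldehyde and 1 ug/ml Hoechst fixed the cells and stained nuclei 5 days after treatment. Lung cancer cell lines in 1536-well plates had been treated by pin tool the day after seeding with one drug alone or a fixed anchor-drug dose plus five library-drug doses (not always all listed) in √10 steps, and nuclei were counted on 4× images. Relative viability is the ratio of nuclei in treated wells to nuclei in vehicle wells, taken as the median of duplicate plates.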
# AZD1208 + Tozasertib = compound: N[C@@H]1CCCN(c2c(/C=C3\SC(=O)NC3=O)cccc2-c2ccccc2)C1 [AZD1208] + Cc1cc(Nc2cc(N3CCN(C)CC3)nc(Sc3ccc(NC(=O)C4CC4)cc3)n2)n[nH]1 [Tozasertib] (partner 0.1 µM); test: as above
# In short: as §1
Cell Line,relative viability (XMD14-99 + Foretinib; first compound 0.08 µM),relative viability (XMD14-99 + Foretinib; first compound 0.8 µM),relative viability (XMD14-99 + Foretinib; first compound 2.53 µM),relative viability (XMD14-99 + Foretinib; first compound 8 µM),relative viability (AZD1208 + Tozasertib; first compound 0.08 µM),relative viability (AZD1208 + Tozasertib; first compound 0.253 µM),relative viability (AZD1208 + Tozasertib; first compound 0.8 µM),relative viability (AZD1208 + Tozasertib; first compound 2.53 µM),relative viability (AZD1208 + Tozasertib; first compound 8 µM)
NCI-H460,1.03,1.03,1.01,0.808,0.461,0.473,0.474,0.347,0.389
EPLC-272H,0.748,0.764,0.684,0.444,0.231,0.351,0.263,0.149,0.197
